{"source": "patent US20010052137A1", "about": "“Axin domain-like polypeptide inhibitors of glycogen synthase kinase 3 beta activity and activators of wnt signaling” (Trustees of the University of Pennsylvania, priority 2000, published 2001)", "key": {"[1]": {"test_system": "LEF-1 dependent transcription (wnt signaling)", "assay": "LEF-luciferase reporter of wnt signaling in 293T cells", "format": "cell-based", "conditions": "at 37°", "method": "LEF-1 (also designated tcf) is a DNA-binding protein that also binds with beta-catenin. The beta-catenin/LEF-1 complex is known to activate transcription of wnt target genes. A genetic construct was made which comprised this LEF-1-binding promoter operably linked with a luciferase gene, for use as a reporter of wnt signaling.\nSingle plasmids encoding individual GID fragments were transfected into 293T cells, together with the LEF-luciferase reporter, and luciferase activity was measured after 24 hours. GID fragments induced up to 100- to 250-fold activation of LEF-luciferase (normalized to activity from the mutated LEF-reporter control, which was activated less than 2-fold)."}, "GSK-3 beta [2]": {"test_system": "GSK-3 beta", "assay": "In ovo tau phosphorylation assay: GSK-3 beta and Xaxin constructs co-expressed in Xenopus oocytes", "format": "cell-based", "conditions": "construct co-expressed with GSK-3 beta in Xenopus oocytes; tau microinjected; PHF-1 immunoblot", "method": "Stage VI Xenopus oocytes were isolated by collagenase treatment (Smith et al., 1994, Meth. Cell Biol. 36:45-58) and were injected with mRNA prepared by in vitro transcription (mMessage Machine™; Ambion, Austin, Tex.). 10 nanoliters of mRNA (containing 1-2 nanograms per nanoliter) was injected for each construct (unless otherwise specified), and the injected oocytes were incubated for 16 hours at 18° C. To analyze the effects of Xaxin constructs on dorsal-ventral pattern formation, Xenopus embryos were injected with 10 nanoliters of mRNA (0.1-0.2 nanogram per nanoliter) into one dorsal or ventral cell of a 4 cell embryo and dorsal axes were assessed at the tadpole stage. For Xaxin co-immunoprecipitation, fertilized eggs were injected with 10 nanoliters of Xaxin tagged with Myc, with hemagglutinin, or with both Myc and hemagglutinin (1 nanogram per nanoliter) and harvested at the blastula stage (stage 8).\nIn ovo phosphorylation of tau by GSK-3 beta was performed by microinjection of tau protein into oocytes expressing GSK-3 beta and Xaxin constructs. After 90 minutes, oocytes were homogenized and tau phosphorylation was analyzed in western blots using phospho-specific antibodies as described (Hedgepeth et al., 1997, Develop. Biol. 185:82-91). In vitro assays for GSK-3 beta activity were performed as described (Klein et al., 1996, Proc. Natl. Acad. Sci. USA 93:8455-8459). Recombinant GID-2/his protein (described below) was purified by affinity chromatography and added to in vitro assays at selected concentrations. […]\nGSK-3 beta was expressed in oocytes together with Myc-tagged full length Xaxin or with the amino-terminal (amino acid residues 63-288), GID-1 (amino acid residues 277-545), or carboxyl-terminal (amino acid residues 429-713) fragments of Xaxin, as depicted in FIG. 1A. Purified tau protein was then microinjected into the oocytes, and phosphorylation of tau was measured by immunoblotting using antibody PHF-1 or with antibodies that detect all (i.e. phosphorylated and non-phosphorylated) forms of tau. […]"}, "GSK-3 beta [3]": {"test_system": "GSK-3 beta", "assay": "Co-immunoprecipitation of GSK-3 beta with Myc-tagged Xaxin constructs in Xenopus oocytes", "format": "binding", "conditions": "Myc-tagged construct co-expressed with GSK-3 beta in Xenopus oocytes; anti-Myc IP, anti-GSK-3 beta blot"}}, "note": "Ends that are not written are not given here."}
{"substance": "GID5-6FY: GID mutant in which phenylalanine-388 is replaced with a tyrosine residue (DIHVDPEKYAAELISRLEGVLRDRE)", "values": [{"measurement": "reduction of activity in LEF-luciferase assay compared to wild-type", "setting": "[1]", "value": "approximately 10 fold"}]}
{"substance": "GID-3: Myc-tagged fragment, Xaxin amino acid residues 320-375 (DSEQQSMSSDADTMSLTDSSVDGIPPYRLRKHYRREMQESANANGRGPLPHIPRTY; also: Myc-tagged fragment)", "values": [{"measurement": "GSK-3 beta-mediated tau phosphorylation (GSK-3 beta activity)", "setting": "GSK-3 beta [2]", "value": "no effect"}, {"measurement": "binding with GSK-3 beta (co-immunoprecipitation)", "setting": "GSK-3 beta [3]", "value": "did not bind"}]}
{"substance": "GID-5: Myc-tagged fragment, Xaxin amino acid residues 380-429 (DIHVDPEKFAAELISRLEGVLRDREAEQKLEERLKRVRAEEEGDDGDVSS; also: Myc-tagged fragment)", "values": [{"measurement": "GSK-3 beta-mediated tau phosphorylation (GSK-3 beta activity)", "setting": "GSK-3 beta [2]", "value": "inhibited"}, {"measurement": "binding with GSK-3 beta (co-immunoprecipitation)", "setting": "GSK-3 beta [3]", "value": "bound"}]}
{"substance": "GID-6: Myc-tagged fragment, Xaxin amino acid residues 380-404 (SEQ ID NO: 1) (DIHVDPEKFAAELISRLEGVLRDRE; also: Myc tag)", "values": [{"measurement": "GSK-3 beta-mediated tau phosphorylation (GSK-3 beta activity)", "setting": "GSK-3 beta [2]", "value": "inhibited"}, {"measurement": "binding with GSK-3 beta (co-immunoprecipitation)", "setting": "GSK-3 beta [3]", "value": "bound"}]}
